# In PubChem BioAssay (NCI):
#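 Cells were grown in 96-well plates and exposed to each compound for 48 hours at five concentrations; endpoints were interpolated linearly between bracketing concentrations, or set to the highest concentration if not reached. TGI is the concentration that stops growth completely.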
# How the values were obtained:
# Experiment in all cases: NCI tumour cell line growth inhibition, 48 h
# HT29 colon = tested on: HT29 colon
# NCI/ADR-RES ovarian = tested on: NCI/ADR-RES ovarian
# M14 melanoma = tested on: M14 melanoma
# MOLT-4 leukemia = tested on: MOLT-4 leukemia
# HCT-116 colon = tested on: HCT-116 colon
# CCRF-CEM leukemia = tested on: CCRF-CEM leukemia
# SF-539 CNS = tested on: SF-539 CNS
# SK-MEL-5 melanoma = tested on: SK-MEL-5 melanoma
# SR leukemia = tested on: SR leukemia
# MDA-MB-231 breast = tested on: MDA-MB-231 breast
# MDA-MB-435 = tested on: MDA-MB-435
# SN12C renal = tested on: SN12C renal
# MCF7 breast = tested on: MCF7 breast
# NCI-H226 lung = tested on: NCI-H226 lung
# KM12 colon = tested on: KM12 colon
SMILES,TGI (HT29 colon) [µM],TGI (NCI/ADR-RES ovarian) [µM],TGI (M14 melanoma) [µM],TGI (MOLT-4 leukemia) [µM],TGI (HCT-116 colon) [µM],TGI (CCRF-CEM leukemia) [µM],TGI (SF-539 CNS) [µM],TGI (SK-MEL-5 melanoma) [µM],TGI (SR leukemia) [µM],TGI (MDA-MB-231 breast) [µM],TGI (MDA-MB-435) [µM],TGI (SN12C renal) [µM],TGI (MCF7 breast) [µM],TGI (NCI-H226 lung) [µM],TGI (KM12 colon) [µM]
COc1ccc(C(=O)/C=C/c2ccc(O)c(O)c2)c(OC)c1,32,> 61.2,19,> 38.9,16.1,> 32,7.55,13.3,6.54,27.3,> 48.5,13.2,14.1,22.3,15
CCN(CC)CC1CCCCN1CC(=O)N1c2ccccc2C(=O)Nc2cccnc21 (stereo not given),> 100,67.5,> 100,55.5,37.2,38.5,> 100,> 100,58.1,75.8,> 100,> 100,> 100,98.8,> 100
CC1CC(C)C(C#N)N(C)c2ccccc21 (stereo not given),> 100,> 100,> 100,> 100,> 100,> 100,> 100,> 100,92.2,> 100,> 100,> 100,> 100,> 100,> 100
N#Cc1sc2c(c1OC(=O)c1ccccc1)c(=O)n(-c1ccccc1)c(=S)n2-c1ccccc1,> 100,49.3,40.6,51.8,40.6,61.6,47.8,28.5,> 100,59.2,67.9,77.7,43.6,40.8,43.5
CSc1nc2c(c(=O)[nH]1)N=C(c1ccc([N+](=O)[O-])cc1)CC(c1ccccc1)N2 (stereo not given),48,> 100,> 100,> 100,47.1,> 100,76.2,55.6,> 100,78.8,> 100,> 100,57.6,> 100,33.2
CC(C)(C)c1cc2c(OC/C=C/c3ccccc3)c(c1)Cc1cc(C(C#N)(OC/C=C/c3ccccc3)OC/C=C/c3ccccc3)cc(c1OC/C=C\c1ccccc1)Cc1cc(C(C)(C)C)cc(c1OC/C=C/c1ccccc1)Cc1cc(C(C#N)(OC/C=C\c3ccccc3)OC/C=C/c3ccccc3)cc(c1OC/C=C\c1ccccc1)C2 (stereo not given),> 100,> 100,> 100,> 100,> 100,> 100,> 100,> 100,49.3,> 100,> 100,> 100,> 100,> 100,> 100
